According to paper PMC10747602, “Dose Response, Dosimetric, and Metabolic Evaluations of Replacement PFAS Perfluoro-(2,5,8-trimethyl-3,6,9-trioxadodecanoic) Acid (HFPO-TeA)” (Toxics, 2023):
Several values for one entry are separate records, joined by “and”; a condition that tells them apart may be missing. Identical values can stand only once.

Assay: Five-day oral gavage exposure: body weight, liver weights, clinical observations
Assay type: in vivo, Sprague Dawley rats
Settings: for Body Weight Change / Liver Weight / Relative Liver Weight / Absolute Liver Weight / Body Weight Gain: 5 days
Description: The in vivo exposure study was performed under a contract to Jacobs Technology, Inc. (Dallas, TX, USA; EP-C-15-008) and BioSpyder Technologies, Inc. (Carlsbad, CA, USA; 68HE0B20P0250). Animal handling was subcontracted out and performed by Integrated Laboratory Systems (ILS, Morrisville, NC, USA). All procedures followed Animal Welfare Act Regulations 9 CFR 1A, 1–4, and animals were handled and treated according to the Guide for the Care and Use of Laboratory Animals. Male and female Sprague Dawley rats (n = 36/sex) were purchased from Charles River Laboratory (Raleigh, NC, USA) and allowed to acclimate for 7–10 days before initial dosing. Animals were assigned to groups using analysis of variance (ANOVA) to ensure the mean body weights of the groups were not statistically different. Same-sex pairs were housed in polycarbonate cages (23 cm × 44 cm × 21 cm) with hardwood bedding (Northeastern Products Corp., Warrensburg, NY, USA), changed twice per week. Rats were kept in rooms maintained between 20.0 and 25.0 °C and 30.0 and 70.0% humidity while exposed to a 12 h light–dark cycle. Certified Purina Pico Chow No. 5002 (Ralston Purina Co., St. Louis, MO, USA) and reverse osmosis (RO)-treated tap water (City of Durham, NC, USA) were available ad libitum. Rats were 8–10 weeks old at the time of dosing and weighed between 228 and 302 g (males) and 208 and 232 g (females).
Male and female rats (n = 4/sex, dose, and time point) were dosed by gavage (5 mL/kg bodyweight) once daily for five days with water (vehicle control) or HFPO-TeA at eight half-log dose levels ranging from 0.3 to 335.2 mg/kg/day (i.e., 0.3, 0.9, 2.3, 6.3, 17, 45.9, 124, and 335.2). The results reported here are part of a larger study, for which the main purpose was to use benchmark dose–response modeling of transcriptomic data to identify a gene set basis for the point of departure (POD).
Clinical observations were performed prior to first administration and at termination. Moribundity and mortality were assessed twice daily on weekdays and once daily on weekends. Animals found moribund were euthanized by carbon dioxide inhalation and death was confirmed by cervical dislocation.
Whole blood was collected from the retro-orbital plexus under isoflurane anesthesia 2 h following the first dose and by cardiac puncture 24 h after the last dosage. Blood was stored in anticoagulant potassium ethylenediaminetetraacetic acid (K3EDTA)-coated vacutainers, and then processed to isolate plasma via centrifugation. Animals were euthanized via carbon dioxide asphyxiation and subsequent exsanguination. Liver was collected, weighed, cubed, and divided into three aliquots. One aliquot of tissue was flash-frozen in liquid nitrogen and stored at −80 °C for analytical chemistry analyses. The remaining two aliquots were placed in RNALater and frozen for use in the companion transcriptomic study. Liver and plasma samples were received at the U.S. EPA Center for Computational Toxicology and Exposure, Advanced Analytical Chemistry Methods Branch in Research Triangle Park, North Carolina, USA, and stored at −80 °C prior to extraction.

[1] = 0.3 mg/kg/day, F, individual rats
[2] = 0.3 mg/kg/day, F, mean ± SD n=4
[3] = 0.3 mg/kg/day, M, individual rats
[4] = 0.3 mg/kg/day, M, mean ± SD n=4
[5] = 0.9 mg/kg/day, F, individual rats
[6] = 0.9 mg/kg/day, F, mean ± SD n=4
[7] = 0.9 mg/kg/day, M, individual rats
[8] = 0.9 mg/kg/day, M, mean ± SD n=4
[9] = 2.3 mg/kg/day, F, individual rats
[10] = 2.3 mg/kg/day, F, mean ± SD n=4
[11] = 2.3 mg/kg/day, M, individual rats
[12] = 2.3 mg/kg/day, M, mean ± SD n=4
[13] = 6.3 mg/kg/day, F, individual rats
[14] = 6.3 mg/kg/day, F, mean ± SD n=4
[15] = 6.3 mg/kg/day, M, individual rats
[16] = 6.3 mg/kg/day, M, mean ± SD n=4
[17] = 17 mg/kg/day, F, individual rats
[18] = 17 mg/kg/day, M, individual rats

Compound: O=C(O)C(F)(OC(F)(F)C(F)(OC(F)(F)C(F)(OC(F)(F)C(F)(F)C(F)(F)F)C(F)(F)F)C(F)(F)F)C(F)(F)F (centres unmarked) [HFPO-TeA, perfluoro-(2,5,8-trimethyl-3,6,9-trioxadodecanoic) acid]
- Body Weight Change [1]: 11.3 g and 8.5 g and 1.0 g and 5.1 g
- Liver Weight [1]: 10.2929 g and 10.0087 g and 10.5040 g and 10.1866 g
- Relative Liver Weight [1]: 4.458 g% and 4.431 g% and 4.573 g% and 4.489 g%
- Absolute Liver Weight [2]: 10.25 ± 0.2070 g
- Body Weight Gain [2]: 6.5 ± 4.4 g
- Relative Liver Weight [2]: 4.488 ± 0.062 g%
- Body Weight Change [3]: 28.2 g and 40.1 g and 48.5 g and 32.0 g
- Liver Weight [3]: 13.9494 g and 16.3796 g and 15.4580 g and 15.2495 g
- Relative Liver Weight [3]: 4.953 g% and 4.616 g% and 4.795 g% and 4.445 g%
- Absolute Liver Weight [4]: 15.2591 ± 1.0017 g
- Body Weight Gain [4]: 37.2 ± 9.0 g
- Relative Liver Weight [4]: 4.702 ± 0.220 g%
- Body Weight Change [5]: 8.6 g and 18.4 g and 10.4 g and 11.3 g
- Liver Weight [5]: 12.6621 g and 11.3910 g and 11.9531 g and 11.5466 g
- Relative Liver Weight [5]: 5.327 g% and 5.016 g% and 5.192 g% and 4.809 g%
- Absolute Liver Weight [6]: 11.8882 ± 0.5678 g
- Body Weight Gain [6]: 12.2 ± 4.3 g
- Relative Liver Weight [6]: 5.086 ± 0.224 g%
- Body Weight Change [7]: 46.0 g and 38.3 g and 37.4 g and 36.7 g
- Liver Weight [7]: 16.7977 g and 16.8117 g and 16.3850 g and 18.5738 g
- Relative Liver Weight [7]: 5.241 g% and 5.318 g% and 5.059 g% and 5.544 g%
- Absolute Liver Weight [8]: 17.1421 ± 0.9748 g
- Body Weight Gain [8]: 39.6 ± 4.3 g
- Relative Liver Weight [8]: 5.291 ± 0.201 g%
- Body Weight Change [9]: 21.5 g and 10.9 g and 8.5 g and 8.3 g
- Liver Weight [9]: 12.3341 g and 12.8755 g and 12.0585 g and 12.4504 g
- Relative Liver Weight [9]: 5.372 g% and 5.236 g% and 5.345 g% and 5.231 g%
- Absolute Liver Weight [10]: 12.4296 ± 0.3397 g
- Body Weight Gain [10]: 12.3 ± 6.2 g
- Relative Liver Weight [10]: 5.296 ± 0.073 g%
- Body Weight Change [11]: 37.5 g and 45.8 g and 38.2 g and 34.6 g
- Liver Weight [11]: 17.9851 g and 19.2395 g and 20.9175 g and 18.7875 g
- Relative Liver Weight [11]: 5.558 g% and 5.913 g% and 6.285 g% and 5.910 g%
- Absolute Liver Weight [12]: 19.2324 ± 1.2374 g
- Body Weight Gain [12]: 39.0 ± 4.8 g
- Relative Liver Weight [12]: 5.916 ± 0.297 g%
- Body Weight Change [13]: -11.8 g and -21.3 g and -2.2 g and -35.7 g
- Liver Weight [13]: 10.2774 g and 9.4969 g and 12.9764 g and 9.4275 g
- Relative Liver Weight [13]: 4.807 g% and 5.025 g% and 6.242 g% and 5.243 g%
- Absolute Liver Weight [14]: 10.5446 ± 1.6664 g
- Body Weight Gain [14]: -17.8 ± 14.3 g
- Relative Liver Weight [14]: 5.329 ± 0.634 g%
- Body Weight Change [15]: 27.5 g and 43.2 g and 31.7 g and 24.7 g
- Liver Weight [15]: 19.3187 g and 25.7576 g and 22.4062 g and 22.3377 g
- Relative Liver Weight [15]: 6.254 g% and 7.468 g% and 6.965 g% and 7.243 g%
- Absolute Liver Weight [16]: 22.4551 ± 2.6306 g
- Body Weight Gain [16]: 31.8 ± 8.1 g
- Relative Liver Weight [16]: 6.983 ± 0.527 g%
- Body Weight Change [17]: -62.7 g and -52.1 g and -49.6 g and -56.3 g
- Liver Weight [17]: 9.7114 g and 9.8972 g and 9.1738 g and 9.9260 g
- Relative Liver Weight [17]: 6.002 g% and 5.659 g% and 5.567 g% and 5.958 g%
- Absolute Liver Weight (17 mg/kg/day, F, mean ± SD n=4): 9.6771 ± 0.3488 g
- Body Weight Gain (17 mg/kg/day, F, mean ± SD n=4): -55.2 ± 5.7 g
- Relative Liver Weight (17 mg/kg/day, F, mean ± SD n=4): 5.796 ± 0.216 g%
- Body Weight Change [18]: -36.3 g and -50.7 g and -59.7 g and -59.2 g
- Liver Weight [18]: 13.4969 g and 13.8697 g and 12.4995 g and 13.1122 g
- Relative Liver Weight [18]: 5.386 g% and 5.593 g% and 5.511 g% and 5.909 g%
- Absolute Liver Weight (17 mg/kg/day, M, mean ± SD n=4): 13.2446 ± 0.5851 g
- Body Weight Gain (17 mg/kg/day, M, mean ± SD n=4): -51.5 ± 10.9 g
- Relative Liver Weight (17 mg/kg/day, M, mean ± SD n=4): 5.600 ± 0.223 g%
- Abnormal clinical observations (female rats, 6.3 mg/kg/day dose group): piloerection and thinness
- Abnormal clinical observations (in addition) (female rats, 17 mg/kg/day dose group): coldness to touch and hunching
- Abnormal clinical observations (alongside previous signs) (female rats, 45.9 mg/kg/day): Abnormal breathing
- Abnormal clinical observations (female rats, 124 mg/kg/day): decreased movement and lethargy
- Abnormal clinical observations (male rats, 17 and 45.9 mg/kg/day dose groups): lethargy, piloerection, thinness, hunching, coldness to touch, abnormal breathing, and decreased movement
